PubChem BioAssay AID1963421 (Molecular Pharmacology Branch, DTP, NCI, 2024)

System: 519858-162-T-J1-PDC complex spheroid growth, % test/control
Test: Anticancer human tumor 519858-162-T-J1-PDC patient-derived colon adenocarcinoma cell line growth inhibition [Asc]
Conditions: for IC50: curve of first compound; for viability, T/C: stronger effect = lower value
Method in brief: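 Tumor cells were grown as complex spheroids with human endothelial cells (HUVEC) and human mesenchymal stem cells as stroma. Agents were tested alone and in combination, in half-log steps down from the clinical Cmax, or from 10 microM where Cmax was unknown.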
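Note: seven day drug exposure begun three days after spheroid seeding.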
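Throughout, for viability, T/C: 100% = DMSO vehicle wells and lower values mean less viable spheroid.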

C#Cc1c(F)ccc2cc(O)cc(-c3ncc4c(N5CC6CCC(C5)N6)nc(OCC56CCCN5CC(F)C6)nc4c3F)c12 (configuration not stated) + CNC(C)C(=O)NC1CN(S(=O)(=O)c2cccc(S(=O)(=O)N3CCC4CCC(C(=O)NC(c5ccccc5)c5ccccc5)N4C(=O)C(NC(=O)C(C)NC)C3)c2)CCC2CCC(C(=O)NC(c3ccccc3)c3ccccc3)N2C1=O
IC50 (second compound 0.00316 µM): > 10 µM | IC50 (second compound 0.01 µM): > 10 µM | IC50 (second compound 0.0316 µM): > 10 µM | IC50 (second compound 0.1 µM): > 10 µM | IC50 (second compound 0.316 µM): > 10 µM | IC50 (second compound 1 µM): > 10 µM | viability, T/C (second compound 0.00316 µM, first compound 0.0316 µM): 138% | viability, T/C (second compound 0.00316 µM, first compound 0.1 µM): 111% | viability, T/C (second compound 0.00316 µM, first compound 0.316 µM): 99.4% | viability, T/C (second compound 0.00316 µM, first compound 1 µM): 100% | viability, T/C (second compound 0.00316 µM, first compound 3.16 µM): 82.1% | viability, T/C (second compound 0.00316 µM, first compound 10 µM): 72.1% | viability, T/C (second compound 0.01 µM, first compound 0.0316 µM): 97.8% | viability, T/C (second compound 0.01 µM, first compound 0.1 µM): 91.2% | viability, T/C (second compound 0.01 µM, first compound 0.316 µM): 93.6% | viability, T/C (second compound 0.01 µM, first compound 1 µM): 86.1% | viability, T/C (second compound 0.01 µM, first compound 3.16 µM): 81.2% | viability, T/C (second compound 0.01 µM, first compound 10 µM): 77.3% | viability, T/C (second compound 0.0316 µM, first compound 0.0316 µM): 96.5% | viability, T/C (second compound 0.0316 µM, first compound 0.1 µM): 82.4% | viability, T/C (second compound 0.0316 µM, first compound 0.316 µM): 86.3% | viability, T/C (second compound 0.0316 µM, first compound 1 µM): 102% | viability, T/C (second compound 0.0316 µM, first compound 3.16 µM): 75.2% | viability, T/C (second compound 0.0316 µM, first compound 10 µM): 105% | viability, T/C (second compound 0.1 µM, first compound 0.0316 µM): 123% | viability, T/C (second compound 0.1 µM, first compound 0.1 µM): 123% | viability, T/C (second compound 0.1 µM, first compound 0.316 µM): 117% | viability, T/C (second compound 0.1 µM, first compound 1 µM): 97.6% | viability, T/C (second compound 0.1 µM, first compound 3.16 µM): 88.1% | viability, T/C (second compound 0.1 µM, first compound 10 µM): 94.9% | viability, T/C (second compound 0.316 µM, first compound 0.0316 µM): 78.8% | viability, T/C (second compound 0.316 µM, first compound 0.1 µM): 97.6% | viability, T/C (second compound 0.316 µM, first compound 0.316 µM): 111% | viability, T/C (second compound 0.316 µM, first compound 1 µM): 115% | viability, T/C (second compound 0.316 µM, first compound 3.16 µM): 87.8% | viability, T/C (second compound 0.316 µM, first compound 10 µM): 92.2% | viability, T/C (second compound 1 µM, first compound 0.0316 µM): 86.5% | viability, T/C (second compound 1 µM, first compound 0.1 µM): 93.2% | viability, T/C (second compound 1 µM, first compound 0.316 µM): 92.2% | viability, T/C (second compound 1 µM, first compound 1 µM): 77.9% | viability, T/C (second compound 1 µM, first compound 3.16 µM): 112% | viability, T/C (second compound 1 µM, first compound 10 µM): 106%
